What is called logP is a log measure of how a compound divides between an organic and an aqueous phase. Lower therefore signals lower lipophilicity.

Entries after “also recorded” stand apart in the source; their conditions may differ.

One series deals with Aβ fibrils (anti-Aβ IgG) (Homo sapiens, UniProt P05067). The following applies: for Emax: read-out: % Max Inhib.
The nature of series [1]: Octanol/PBS partition coefficient (log P), experimental. The following applies: for logP: octanol/PBS buffer.
Procedure: (§1) 15 μM solutions of small molecule are prepared in 5 mL PBS buffer. 5 mL of octanol is added to each aqueous solution of small molecule and the biphasic layers are mixed by rapid vortexing. The mixture is then centrifuged at 250×g to facilitate the formation of two clear layers. The layers are separated and the absolute concentrations of small molecules in each layer are quantified by measuring the absorbance of the layers at the appropriate nm for each compound. The molar extinction coefficient of the compound in octanol and PBS buffer is determined by comparison to standard calibration curves of known quantities of small molecules dissolved in octanol and PBS buffer. The partition coefficient is expressed as logarithm of the ratio of the concentration in octanol divided by the concentration in PBS (i.e., log P).
The target in series [2] is T1, Aβ(1-42) ion channel activity (Homo sapiens, UniProt P05067).
T1 construct: Aβ(1-42) (Biopeptides) was initially dissolved in deionized water at 1 mg/ml (221.5 μM); purchased Biopeptide, Inc.
Briefly: Planar lipid bilayer Aβ ion channel assay, Method 1 (POPE:POPG, pre-incubated Aβ). The format is biochemical. Conditions: for membrane lasts: Method 1, incubated at 4:1 with Aβ, average of experiments. As to the method:
[…] The Aβ sample was pre-incubated at RT for 12-18 hours. The molecules of interest can be pre-incubated with Aβ sample at various concentrations.
Bilayer set-up and recording system: Planar lipid bilayer was formed by the so-called “painting technique” over a 250-μm aperture on a Delrin cup (Warner Instruments) separating two compartments (cis and trans) of a bilayer setup. A lipid mixture of 1-palmitoyl-2-oleoyl phosphatidyletanolamine (POPE): palmitoyl-oleyl-phosphatidylglycerol (POPG) (Avanti Polar Lipids), 1:1 at 25 mg mL-1 in heptane was applied to the aperture which is pre-treated with 2 μL of the same lipid mixture (20 mg mL^−1) in hexane on each side. The recording buffer in cis compartment is 100 mM K2HPO4/KH2PO4 pH 7.4, while in the trans compartment a buffer with pre-incubated Aβ overnight was used.

The target in another series is T2, Aβ(1-42) ion channels (Homo sapiens, UniProt P05067).
T2 construct: Aβ(1-42) (Biopeptides) was initially dissolved in deionized water at 1 mg/ml (221.5 μM); purchased Biopeptide, Inc.
Briefly: Functional ion channel inhibition assay, planar lipid bilayer (Example 7). The format is biochemical. Conditions: for Inhibition of de-novo Aβ ion channel formation: molar ratio to Aβ 1:1, added at the same time as 37 μM Aβ; for Rank of inhibitory effect on Aβ ion channel activity: repeated experiments. From the text: Functional Ion Channel Inhibition Assays: A functional assay has been developed to investigate the inhibition of neurotoxic ion channel activity of Aβ peptides in reconstituted membrane bilayers and in aneuronal cell line by small molecules. The assay is based on ultra-sensitive electrophysiological recordings of the ion channel activity of Aβ. This ion channel-activity assay is designed to determine whether small molecules that bind to Aβ fibrils will inhibit ion channel activity. Compounds that inhibit ion channel activity are likely candidates for therapeutics and diagnostic agents for amyloid-associated diseases. This Example presents results that nicotine, tannic acid, and Congo Red are able to inhibit the ion channel activity of Aβ oligomers in planar lipid bilayers.
1. The lipid mixture was made from POPE:POPG (Avanti Polar Lipids) at 25 mg/ml (1:1) in Heptane. The pretreatment lipid solution was POPE:POPG 20 mg/mL in Hexane.
2. The bilayer was formed in classic bilayer cups and chamber (Warner Instruments). This 2-part system consists of a black Delrin chamber and a cup of Delrin. Cups and chambers are designed such that addition of equal volumes to the cup and chamber (cis and trans sides) results in a balanced solution height, minimizing any pressure gradients across the bilayer membrane.
3. The bilayer was formed over a 250 μm hole in a partition separating two Delrin compartments, the so called “painting technique.” First, droplets of pretreatment lipid solution were placed on both sides of the hole, using 100 uL-Hamilton syringe. Once the droplet of hexane evaporates, both chambers (cis and trans) were symmetrically filled with 900 uL of buffer solution, 100 mM KH2PO4/K2HPO4 pH 7.4, at room temperature.
4. When the bilayer set-up was already in place with Ag/AgCl electrodes in Faraday cage (a bilayer workstation which provides critical shielding of electromagnetic interference from outside sources and isolate vibration), the lipid solution (POPE:POPG in Heptane) was painted directly over the hole by using a thin paintbrush. A researcher gently blew underneath the hole by using the Pasteur pipette to thin out the bilayer until the appropriate capacitance was obtained (80-120 pF).
5. A voltage of ±100 mV was applied for at least 10 minutes to test stability of lipid bilayer.
Aβ(1-42) (Biopeptides) was initially dissolved in deionized water at 1 mg/ml (221.5 μM), and stored at −20° C. The stock solution is aliquotted to sufficient amount for each time use (90 uL). After the stable bilayer is constituted, the Aβ(1-42) solution was added to the trans side of the chamber to obtain a final concentration of 37 μM. The solution was mixed well in the chamber under stirring for 5 minutes
Congo Red (Sigma) was dissolved in DI Water to achieve a concentration of 2.5 mg/ml (3.58 mM) as a stock solution. (−) Nicotine Hemasulfate (Sigma) was diluted to 1.89 mM in DI Water. Tannic Acid (Riedel-de Haen) was diluted to 20 mM in DI Water.
The solution of inhibitory molecule was added to cis and trans sides to make a desired final concentration (1:1 molar ratio) at the same time as Aβ.
For Nicotine, the solution was added after observing current activities of Aβ to obtain 1:1, 1:2, 1:3, 1:4 molar ratio.

Series [3] has as its target Aβ fibrils (binding of anti-Aβ IgG clone 6E10) (Homo sapiens, UniProt P05067). Briefly: ELISA-based assay: inhibition of anti-Aβ IgG (clone 6E10) binding to Aβ fibrils. The following applies: control experiments, FIG. 2 panel c. (In an ELISA, binding on a coated surface is turned into a signal by an enzyme label.)
Series [4] addresses T3, Aβ(1-40) ion channel activity (Homo sapiens, UniProt P05067).
T3 construct: Aβ(1-40) (Biopeptide, Inc.) powder was initially solubilized lyophilized in DiH2O at 1 mg/mL; purchased Biopeptide, Inc
Kind of series: Planar lipid bilayer Aβ ion channel assay, Method 2 (POPE:DOPS, Aβ proteoliposomes). Format: biochemical. The following applies: for Small molecule concentration at which no ion channel activity is observed: Method 2, added after observing events. The method, then: Method 2: Planar lipid bilayer was formed by the so-called “painting technique” over a 250-μm aperture on a Delrin cup (Warner Instruments) separating two compartments (cis and trans) of a bilayer setup. A lipid mixture of 1-palmitoyl-2-oleoyl phosphatidyletanolamine (POPE) (Avanti Polar Lipids) and Dioleoylphosphatidylserine (DOPS) (Avanti Polar Lipids), 1:1 at 10 mg mL-1 in heptane was applied on the aperture which is pre-treated with 2 μL of the same lipid mixture in hexane on each side. Both compartments were filled symmetrically with 800 μL of 70 mM KCl, […]. A glass pipette with a smooth bent tip was used to blow air bubble under the aperture to thin out the droplet of lipid to obtain a planar lipid bilayer (with capacitance >80 pF). Membrane stability was determined by applying ±100 mV for 10 minutes and monitoring a constant current baseline without instabilities in current. The capacitance of the membrane was monitored throughout the experiment.
Monomerization of Aβ: Aβ powder (Biopeptide, Inc.) was initially solubilized in Hexafluoroisopropanol (HFIP) at 1 mM for 21 hours in a glass vial, with 3 times of vortexing throughout the incubation period. The solution was diluted with cold nanopure water (2:1 H2O:HFIP) vortexed, fractionated in desire amounts, and immediately frozon in a CO2/acetone bath. Each fraction was covered with parafilm that was punctured twice to allow solvent vapors to escape. The fractions were lyophilized for 2 days to obtain monomerized Aβ.
Preparation of Aβ proteoliposomes: Aβ(1-40) (Biopeptide, Inc.) powder was initially solubilized lyophilized in DiH2O at 1 mg/mL and stored in −80° C. before use. 20 μL of DOPS was evaporated in CHCl3 (10 mg mL^−1) under vacuum and formed liposomes using hydration method. After obtaining a thin film of lipid, 30 μL of 1M Potassium Aspartate pH 7.2 was added, followed by 5 minutes of bath sonication. The liposome suspension was then mixed with 20 μL of Aβ (1-40) solution (1 mg/mL) and sonicated for 5 minutes.
In order to promote fusion of Aβ proteoliposomes into the bilayer, an ionic gradient of 370 mM KCl was used on the cis side (the side of proteoliposome addition) and 70 mM KCl on the trans side of the bilayer setup. 10-20 μL of the Aβ proteoliposome solution was added to the cis compartment and stirred vigorously for 5-10 minutes. The molecules of interest can be tested by addition to the chamber after observing events.

T2 sequence (P05067 672-713 limits assumed): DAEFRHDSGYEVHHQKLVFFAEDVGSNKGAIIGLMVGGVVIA
Sequence of Aβ fibrils (anti-Aβ IgG) (P05067 672-713 limits assumed): as above
T1 sequence (P05067 672-713 limits assumed): as above
T3 sequence (P05067 672-711 limits assumed): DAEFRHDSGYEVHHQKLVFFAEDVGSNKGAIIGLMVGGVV
Sequence of Aβ fibrils (binding of anti-Aβ IgG clone 6E10) (P05067 672-713 limits assumed): as the sequence (P05067 672-713 limits assumed) above
Procedure for physchem: as §1

`CN1CCCC1c1cccnc1` (single isomer, unassigned; (-)) [(−)-Nicotine]: at Aβ fibrils (anti-Aβ IgG) (anti-Aβ IgG-Aβ fibril binding), the “% Max Inhib.” value is 84% and the “Conc at Max Inhib.” value is listed as 1,000 mM. In series [1] (octanol/PBS), the “LogP expt'l” value is 0.20 ± 0.01. The “membrane lasts / membrane stability” value in series [2] (Method 1, incubated at 2:1) is reported as “(incubated at 2:1), unstable membrane”. Also, the “Observe no ion channel activity in (experiments out of total)” value (“Observe no ion channel activity” below) in series [2] (Method 1, incubated at 4:1) is reported as “Observe no ion channel activity in 4 out of 4”. The membrane lasts result in series [2] is listed as “(incubated at 4:1), membrane lasts ~70 minutes”. For the same molecule, the “Time to almost complete disruption of preformed ion channels” value on Aβ(1-42) ion channels (4-fold molar excess with respect to Aβ) was no more than 10 min. Further, the “Disruption of Aβ ion channel activity on addition at increasing concentration” value at Aβ(1-42) ion channels (added after observing Aβ current, 1:1 to 1:4 molar ratio, 37 μM Aβ) was “concentration-dependent disruption of Aβ ion channel activity”. Besides, on Aβ(1-42) ion channels (molar ratio nicotine to Aβ 4:1), the “Disruption of preformed Aβ ion channels” value is reported as “disrupted preformed Aβ channels almost completely”. For the same molecule, at Aβ(1-42) ion channels, the “Inhibition of de-novo Aβ ion channel formation” value was “sufficient to inhibit the de-novo formation of Aβ ion channels; also recorded: did not result in ion channel activity during the entire test period (90 min)” and the “Rank of inhibitory effect on Aβ ion channel activity” value was “strongest inhibitory effect”.
Turning to `O=S(=O)([O-])c1ccc(O)c2ccccc12.[Na+]` [1-naphthol-4-sulfonate], the “Inhibition of the interaction between the IgGs and Aβ fibrils (control compound)” value in series [3] is reported as “No inhibition”.
With `c1cncc(C2CCCN2)c1` (stereo not shown) [Compound 7, Nornicotine], the “Conc at Max Inhib.” value at Aβ fibrils (anti-Aβ IgG) (anti-Aβ IgG-Aβ fibril binding) is on record as 700 mM. For the same molecule, on Aβ fibrils (anti-Aβ IgG), the Emax was determined as 98%. The logP in series [1] was -0.93 ± 0.04.
In turn, `CN1CCCC1c1cncc(Br)c1` (stereo not shown) [Compound 8, 5-Bromonicotine] gave a logP in the series “physchem” of 2.1 ± 0.3. The “Conc at Max Inhib.” value at Aβ fibrils (anti-Aβ IgG) (anti-Aβ IgG-Aβ fibril binding) was 700 mM. Besides, on Aβ fibrils (anti-Aβ IgG), the Emax came to 83%.
Regarding `OCCOCCOCCOCCN1CCCC1c1cccnc1` (stereo not shown) [Compound 10, 2-(2-(2-(2-(2-(pyridin-3yl)pyrrolidin-1-yl)ethoxy)ethoxy)ethoxy)-ethanol], the “Conc at Max Inhib.” value at Aβ fibrils (anti-Aβ IgG) (anti-Aβ IgG-Aβ fibril binding) was determined as 100 mM. Also, the Emax at Aβ fibrils (anti-Aβ IgG) worked out at 81%. Further, in series [1], the lipophilicity (logP) was -0.41 ± 0.05.
The corresponding values for `CN1CCC[C@H]1COC(=O)c1cccnc1` [Compound 13, (s)-1-Methylpyrrolidine-2-methyl nicotinate] are 50 mM, 54% and -0.5 ± 0.02.
Regarding `CN1CCC[C@H]1COC(=O)c1cncc(Br)c1` [Compound 14], the “Conc at Max Inhib.” value at Aβ fibrils (anti-Aβ IgG) (anti-Aβ IgG-Aβ fibril binding) is recorded as 50 mM. Moreover, the Emax at Aβ fibrils (anti-Aβ IgG) worked out at 68%.
For `CN1CCCC1COC(=O)c1ccccn1` (stereo not shown) [Compound 15, (s)-1-Methylpyrrolidine-2-methyl picolinate], the “Conc at Max Inhib.” value on Aβ fibrils (anti-Aβ IgG) (anti-Aβ IgG-Aβ fibril binding) was found to be 50 mM. Further, on Aβ fibrils (anti-Aβ IgG), the Emax was 51%. Also, in series [1], the logP is 0.69 ± 0.08.
`Nc1c(/N=N/c2ccc(-c3ccc(/N=N/c4cc(S(=O)(=O)O)c5ccccc5c4N)cc3)cc2)cc(S(=O)(=O)O)c2ccccc12` [Congo Red]: at Aβ(1-42) ion channels, the “Rank of inhibitory effect on Aβ ion channel activity” value is “then by Congo Red”.
In the case of `COc1cc(/C=C/C(=O)CC(=O)/C=C/c2ccc(O)c(OC)c2)ccc1O` [Curcumin], in series [2] (Method 1, incubated at 2:1), the “Observe no ion channel activity” value is on record as “Observe no ion channel activity in 3 out of 6” and the “membrane lasts / membrane stability” value is “(incubated at 2:1), membrane lasts ~50 minutes”.
`Cl.NCCc1ccc(O)c(O)c1` [Dopamine HCl]: in series [2] (Method 1, incubated at 4:1), the “Observe no ion channel activity” value is “Observe no ion channel activity in 3 out of 4”. Moreover, the membrane lasts result in series [2] was “(incubated at 4:1), membrane lasts ~70 minutes”.
`NC[C@H](O)c1ccc(O)c(O)c1.O.O=C(O)C(O)C(O)C(=O)O` [L-(−)-norepinephrine (+)-bitartrate salt monohydrate]: in series [4], the “Small molecule concentration at which no ion channel activity is observed” value is recorded as “Observe no ion channel activity at 50 μM small”.
For the molecule `N[C@@H](Cc1ccc(O)c(O)c1)C(=O)O` [L-DOPA], the Membrane observation result in series [4] (Method 2, 50 μM small molecule) is recorded as “molecule, membrane broke”. Moreover, the “Small molecule concentration at which no ion channel activity is observed” value in series [4] is “Observe no ion channel activity at 50 μM small”.
For the molecule `CNCCc1ccc(O)c(O)c1.Cl` [N-methyl dopamine hydrochloride], the “Small molecule concentration at which no ion channel activity is observed” value in series [4] is listed as “Observe no ion channel activity at 450 μM small”.
With `O=C([O-])c1ccccc1O.[Na+]` [Salicylic Acid sodium salt], in series [2] (Method 1, incubated at 4:1), the “Observe no ion channel activity” value is on record as “Observe no ion channel activity in 3 out of 3”. For the same molecule, the membrane lasts entry in series [2] is “(incubated at 4:1), membrane lasts ~45 minutes”.
Consider `O=C(OC[C@H]1O[C@@H](OC(=O)c2cc(O)c(O)c(OC(=O)c3cc(O)c(O)c(O)c3)c2)[C@H](OC(=O)c2cc(O)c(O)c(OC(=O)c3cc(O)c(O)c(O)c3)c2)[C@@H](OC(=O)c2cc(O)c(O)c(OC(=O)c3cc(O)c(O)c(O)c3)c2)[C@@H]1OC(=O)c1cc(O)c(O)c(OC(=O)c2cc(O)c(O)c(O)c2)c1)c1cc(O)c(O)c(OC(=O)c2cc(O)c(O)c(O)c2)c1` [Tannic Acid], for which the “Observe no ion channel activity” value in series [2] (Method 1, incubated at 4:1) is recorded as “Observe no ion channel activity in 3 out of 5”. In addition, the membrane lasts entry in series [2] is “(incubated at 4:1), membrane lasts ~75 minutes”. On Aβ(1-42) ion channels, the “Inhibition of de-novo Aβ ion channel formation” value is recorded as “inhibited ion channel activity of Aβ”.
